Reference: patent US20110104155A1, “DRUG DELIVERY TO THE ANTERIOR AND POSTERIOR SEGMENTS OF THE EYE USING EYE DROPS” (Raouf Rekik, priority 2008, published 2011)

Experiments:
[1] = in vivo
Procedure: (§1) The experimental technique was based on ocular fundus fluorescence: Five patients were used in this study. […] Then every hour, the conjunctivae of the two eyes were exposed every hour to a 10% fluorescein solution. 8 hours later the fundus fluorescence in the two eyes was measured and analysed.

[2] = test system: macular oedema secondary to CRVO; details: injected into the eye (intravitreal); cited from earlier work
[3] = ocular fundus fluorescence after topical drug carrier plus fluorescein eye drops; details: exposure of the conjunctival fornices to a 10% fluorescein solution; 7 hours later
Procedure: as §1

Row | Molecule | anterior segment fluorescence compared with the eye receiving only fluorescein [1] | ocular fundus fluorescence compared with the eye receiving only fluorescein [1] | effect on macular oedema secondary to CRVO [2] | further results
1 | Brc1c(NC2=NCCN2)ccc2nccnc12 [brimonidine] | stronger | stronger |  | 
2 | CNC[C@H](O)c1cccc(O)c1 [neosynephrine] |  | stronger |  | 
3 | bevacizumab [Avastin®] |  |  | improved | 
4 | O=C1OC2(c3ccc(O)cc3Oc3cc(O)ccc32)c2ccccc21 [fluorescein] |  |  |  | maximum vitreous concentration [3]: 1.5e-12 g/mL
5 | CC(C)(C)NC[C@H](O)COc1nsnc1N1CCOCC1 [timolol] | the same | stronger |  | 
6 | C[C@]12C=CC(=O)C=C1CC[C@H]1[C@@H]3C[C@@H](O)[C@](O)(C(=O)CO)[C@@]3(C)C[C@H](O)[C@@]12F [triancinolone (Aristocert®), triancinolone] |  |  | efficacy | 
